According to patent US7091199B1, “Thienoisoxazole phenoxy unsubstituted ethyl and propyl derivatives useful as d4 antagonists” (Aventis Pharmaceuticals Inc., priority 1999, dated 2006):
Where a name gives a salt, the structure may show the parent alone.

target: T1, human D4 receptor (D4.2 sub-type) (Homo sapiens, UniProt P21917, DEL271-302); experiment: D4 receptor binding assay (3H-spiperone displacement); details: 3H-spiperone 0.25 nM, HEK cell membranes, human D4.2; read-out: D4 RBA Ki
T1 sequence (P21917 with tags, fused parts or gaps DEL271-302): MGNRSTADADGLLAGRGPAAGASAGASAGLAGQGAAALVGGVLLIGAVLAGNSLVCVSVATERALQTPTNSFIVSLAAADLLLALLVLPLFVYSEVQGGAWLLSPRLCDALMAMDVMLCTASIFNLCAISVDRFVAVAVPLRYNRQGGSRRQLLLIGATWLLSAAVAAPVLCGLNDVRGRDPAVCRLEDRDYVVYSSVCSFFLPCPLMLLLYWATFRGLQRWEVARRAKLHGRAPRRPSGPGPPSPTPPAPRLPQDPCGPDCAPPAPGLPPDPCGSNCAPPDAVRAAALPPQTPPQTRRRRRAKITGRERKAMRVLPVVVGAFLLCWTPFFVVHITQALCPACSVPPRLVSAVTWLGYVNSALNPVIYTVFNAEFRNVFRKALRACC
Protocol: D4 receptor-binding affinities of the compounds were evaluated according to their ability to reduce binding of ^3H-spiperone as compared to the reference compound clozapine. The potency of the test compound to reduce ^3H-spiperone binding directly correlated to its binding affinity for the receptor.
[…] (human embryonic kidney) cells stably transfected with human D4 receptor (D4.2 sub-type) were grown in NUNC cell factories for 5 days (75% confluency) without a media change and removed with versene (approximately 19 mg of cells per cell factory tray). The cells were then centrifuged in a Sorval centrifuge for 10 min, 5000 rpm (GS3 rotor) and the pellets quickly frozen in liquid nitrogen and stored at −80° C. until used in binding assay. When used in the assay, cells were thawed on ice for 20 min and then 10 mL of incubation buffer (50 mM Tris, 1 mM EDTA, 4 mM MgCl2, 5 mM KCl, 1.5 mM CaCl2, 120 mM NaCl, pH 7.4) was added. The cells were then vortexed to resuspend pellet and homogenized with a Kinematica, CH-6010 Kriens-LU, homogenizer for 15 seconds at setting 7. Concentration of receptor protein was determined using the Pierce BCA assay.
The incubation was started by the addition of 100 μl (50 μg protein) membrane homogenate to a solution of 300 μl incubation buffer and 100 μl (0.25 nM final conc.) ^3H-spiperone (90 Ci/mmol, Amersham, diluted in borosilicate glass vial) in 96-well polypropylene plates (1 mL per well). The plates were vortexed and incubated at room temperature for 90 minutes. The binding reaction was stopped by filtering using a Packard Harvester. The samples were filtered under vacuum over glass fibre filter plates (Whatman GF/B) presoaked for 2 hours in 0.3% polyethylenimine (PEI) in 50 mM Tris buffer (pH 7.4). The filters were then washed 6 times with 7 mL ice cold 50 mM Tris buffer (pH 7.4). The filter plates were dried overnight and 35 μl of Microscint-O (Packard) was added. The plates were sealed and counted in the Packard Top Count (3 minutes per well).
The incubation was started by the addition of 100 μl (50 μg protein) membrane homogenate to a solution of 200 μl incubation buffer, 100 μl ^3H-spiperone (90 Ci/mmol, Amersham, diluted in borosilicate glass vial to 0.25 nM final conc.) and 100 μl (30 μM final conc.) of fresh dopamine (Research Biochemicals Inc., light protected and dissolved in incubation buffer) in 96-well polypropylene plates (1 mL per well). The plates were vortexed and incubated at room temperature for 90 minutes at which time the binding reaction was stopped by filtering. The filters were washed and counted using the same procedure as in the total binding assay described above to give the non-specific binding value (NSB).
The incubation was started by the addition, in 96-well polypropylene plates (1 mL per well), of 100 μl (50 μg protein) membrane homogenate to a solution of 200 μl incubation buffer, 100 μl (0.25 nM final conc.) ^3H-spiperone (90 Ci/mmol, Amersham, diluted in borosilicate glass vial) and 100 μl of test compound that was prepared from 1 mM stock dissolved in DMSO and stored at −20° C. in polypropylene cryogenic storage vials until dilution in incubation buffer in 96-well polypropylene plates. The plates were vortexed and incubated at room temperature for 90 minutes at which time the binding reaction was stopped by filtering. The filters were washed and counted using the same procedure as in the total binding assay described above to give the displacement binding value (BD).
The test compounds were initially assayed at 1 and 0.1 μM and then at a range of concentrations chosen such that the middle dose would cause about 50% inhibition of ^3H-spiperone binding. Specific binding in the absence of test compound (B0) was the difference of total binding (BT) minus non-specific binding (NSB) and similarly specific binding (in the presence of test compound) (B) was the difference of displacement binding (BD) minus non-specific binding (NSB). […]

| SMILES | Ki |
| --- | --- |
| Fc1ccccc1CNCCCOc1cccc(-c2noc3ccsc23)c1 [Compound 2, (2-fluoro-benzyl)-[3-(3-thieno[2,3-d]isoxazol-3-yl-phenoxy)-propyl]-amine] | 62 nM |
| Clc1ccc(CNCCCOc2cccc(-c3noc4ccsc34)c2)cc1 [Compound 4, (4-chloro-benzyl)-[3-(3-thieno[2,3-d]isoxazol-3-yl-phenoxy)-propyl]-amine] | 45 nM |
| COc1ccc(CNCCCOc2cccc(-c3noc4ccsc34)c2)cc1 [Compound 5, (4-methoxy-benzyl)-[3-(3-thieno[2,3-d]isoxazol-3-yl-phenoxy)-propyl]-amine] | 92 nM |
| c1cc(OCCCNCc2cccs2)cc(-c2noc3ccsc23)c1 [Compound 6, [3-(3-thieno[2,3-d]isoxazol-3-yl-phenoxy)-propyl]-thiophen-2-ylmethylamine] | 27 nM |
| c1cncc(CNCCCOc2cccc(-c3noc4ccsc34)c2)c1 [Compound 8, pyridin-3-ylmethyl-[3-(3-thieno[2,3-d]isoxazol-3-yl-phenoxy)-propyl]-amine] | 76 nM |
| c1ccc(CNCCOc2cccc(-c3noc4ccsc34)c2)cc1 [Compound 16, benzyl-[2-(3-thieno[2,3-d]isoxazol-3-yl-phenoxy)-ethyl]-amine] | 7.6 nM |
| COc1ccccc1CNCCOc1cccc(-c2noc3ccsc23)c1 [Compound 21, (2-methoxy-benzyl)-[2-(3-thieno[2,3-d]isoxazol-3-yl-phenoxy)-ethyl]-amine] | 14.2 nM |
| c1cc(OCCNCc2ccsc2)cc(-c2noc3ccsc23)c1 [Compound 33, [2-(3-thieno[2,3-d]isoxazol-3-yl-phenoxy)-ethyl]-thiophen-3-ylmethylamine hydrochloride] | 15 nM |
| COc1cccc(CNCCOc2cccc(-c3noc4ccsc34)c2)c1 [Compound 36, (3-methoxy-benzyl)-[2-(3-thieno[2,3-d]isoxazol-3-yl-phenoxy)-ethyl]-amine] | 13 nM |
| Fc1ccc(CNCCOc2cccc(-c3noc4ccsc34)c2)cc1F [Compound 37, (3,4-difluoro-benzyl)-[2-(3-thieno[2,3-d]isoxazol-3-yl-phenoxy)-ethyl]-amine] | 32 nM |
| Cc1ccc(CNCCCOc2cccc(-c3noc4ccsc34)c2)cc1 [Compound 39, (4-methyl-benzyl)-[3-(3-thieno[2,3-d]isoxazol-3-yl-phenoxy)-propyl]-amine] | 20 nM |
| COc1cccc(CNCCCOc2cccc(-c3noc4ccsc34)c2)c1 [Compound 41, (3-methoxy-benzyl)-[3-(3-thieno[2,3-d]isoxazol-3-yl-phenoxy)-propyl]-amine] | 44 nM |
| Fc1ccc(CNCCCOc2cccc(-c3noc4ccsc34)c2)cc1F [Compound 42, (3,4-difluoro-benzyl)-[3-(3-thieno[2,3-d]isoxazol-3-yl-phenoxy)-propyl]-amine] | 47 nM |

same assay, conditions: @ 1 μM test compound; 3H-spiperone binding; read-out: D4 RBA % Inhibition (@ 1 μM)

| SMILES | inhibition at 1 µM |
| --- | --- |
| OC(CNCCCOc1cccc(-c2noc3ccsc23)c1)c1ccccc1 (stereo not shown) [Compound 9, 1-phenyl-2-[3-(3-thieno[2,3-d]isoxazol-3-yl-phenoxy)-propylamino]-ethanol] | 73% |
| c1ccc(N2CCN(CCCOc3cccc(-c4noc5ccsc45)c3)CC2)cc1 [Compound 10, 3-{3-[3-(4-phenyl-piperazin-1-yl)-propoxy]-phenyl}-thieno[2,3-d]isoxazole] | 95% |
| Fc1ccc(N2CCN(CCCOc3cccc(-c4noc5ccsc45)c3)CC2)cc1 [Compound 11, 3-(3-{3-[4-(4-fluoro-phenyl)-piperazin-1-yl]-propoxy}-phenyl)-thieno[2,3-d]isoxazole] | 91% |
| Fc1ccccc1N1CCN(CCCOc2cccc(-c3noc4ccsc34)c2)CC1 [Compound 12, 3-(3-{3-[4-(2-fluoro-phenyl)-piperazin-1-yl]-propoxy}-phenyl)-thieno[2,3-d]isoxazole] | 94% |
| NS(=O)(=O)c1ccc(CNCCCOc2cccc(-c3noc4ccsc34)c2)cc1 [Compound 14, 4-{[3-(3-thieno[2,3-d]isoxazol-3-yl-phenoxy)-propylamino]-methyl}-benzenesulfonamide] | 60% |
| NS(=O)(=O)c1ccc(CCNCCCOc2cccc(-c3noc4ccsc34)c2)cc1 [Compound 15, 4-{2-[3-(3-thieno[2,3-d]isoxazol-3-yl-phenoxy)-propylamino]-ethyl}-benzenesulfonamide] | 65% |
| Clc1ccc(CNCCOc2cccc(-c3noc4ccsc34)c2)cc1Cl [Compound 22, (3,4-dichloro-benzyl)-[2-(3-thieno[2,3-d]isoxazol-3-yl-phenoxy)-ethyl]-amine] | 99% |
| c1cc(OCCNCc2cccs2)cc(-c2noc3ccsc23)c1 [Compound 24, [2-(3-thieno[2,3-d]isoxazol-3-yl-phenoxy)-ethyl]-thiophen-2-ylmethyl-amine] | 95% |
| c1cncc(CNCCOc2cccc(-c3noc4ccsc34)c2)c1 [Compound 25, pyridin-3-ylmethyl-[2-(3-thieno[2,3-d]isoxazol-3-yl-phenoxy)-ethyl]-amine] | 93% |
| c1ccc(N2CCN(CCOc3cccc(-c4noc5ccsc45)c3)CC2)cc1 [Compound 28, 3-{3-[2-(4-phenyl-piperazin-1-yl)-ethoxy]-phenyl}-thieno[2,3-d]isoxazole] | 78% |
| c1cc(OCCN2CCc3ccccc3C2)cc(-c2noc3ccsc23)c1 [Compound 29, 2-[2-(3-thieno[2,3-d]isoxazol-3-yl-phenoxy)-ethyl]-1,2,3,4-tetrahydroisoquinoline] | 60% |
| Fc1ccccc1CNCCOc1cccc(-c2noc3ccsc23)c1 [Compound 34, (2-fluoro-benzyl)-[2-(3-thieno[2,3-d]isoxazol-3-yl-phenoxy)-ethyl]-amine] | 93% |
| Clc1ccccc1CNCCOc1cccc(-c2noc3ccsc23)c1 [Compound 35, (2-chloro-benzyl)-[2-(3-thieno[2,3-d]isoxazol-3-yl-phenoxy)-ethyl]-amine] | 88% |
| c1cc(OCCNC2CCc3ccccc32)cc(-c2noc3ccsc23)c1 (stereo not shown) [Compound 38, indan-1-yl-[2-(3-thieno[2,3-d]isoxazol-3-yl-phenoxy)-ethyl)-amine] | 95% |
| Clc1ccccc1CNCCCOc1cccc(-c2noc3ccsc23)c1 [Compound 40, (2-chloro-benzyl)-[3-(3-thieno[2,3-d]isoxazol-3-yl-phenoxy)-propyl]-amine] | 89% |
| c1cc(OCCCNC2CCc3ccccc32)cc(-c2noc3ccsc23)c1 (stereo not shown) [Compound 43] | 94% |
| c1cc(OCCCNC2Cc3ccccc3C2)cc(-c2noc3ccsc23)c1 [Compound 44, indan-2-yl-[3-(3-thieno[2,3-d]isoxazol-3-yl-phenoxy)-propyl]-amine] | 96% |

same assay, conditions: read-out: D4 RBA % Inhibition (@ 1 μM)

| SMILES | inhibition at 1 µM |
| --- | --- |
| c1ccc(C2CCN(CCOc3cccc(-c4noc5ccsc45)c3)CC2)cc1 [Compound 30, 3-{3-[2-(4-phenyl-piperidin-1-yl)-ethoxy]-phenyl}-thieno[2,3-d]isoxazole hydrochloride] | 68% |
